Reference: US11939302B2, “Compounds for the treatment of Alzheimer's disease” (The Governors of the University of Alberta, priority 2020, dated 2024)
No end group written: not given here.

Assays:
[1] = target: T1, amylin receptor subtype 3 (AMY3) (Homo sapiens, UniProt O60896+P30988); test: Kinetic intracellular Ca2+ changes (Fluo-8L-AM) in AMY3-HEK293 cells; type: cell-based; conditions: human amylin 0.5 μM; compound 0.01-10 μM range; FIG. 3
T1 construct: expressed in transfected cells
T1 sequence (P30988 25-474): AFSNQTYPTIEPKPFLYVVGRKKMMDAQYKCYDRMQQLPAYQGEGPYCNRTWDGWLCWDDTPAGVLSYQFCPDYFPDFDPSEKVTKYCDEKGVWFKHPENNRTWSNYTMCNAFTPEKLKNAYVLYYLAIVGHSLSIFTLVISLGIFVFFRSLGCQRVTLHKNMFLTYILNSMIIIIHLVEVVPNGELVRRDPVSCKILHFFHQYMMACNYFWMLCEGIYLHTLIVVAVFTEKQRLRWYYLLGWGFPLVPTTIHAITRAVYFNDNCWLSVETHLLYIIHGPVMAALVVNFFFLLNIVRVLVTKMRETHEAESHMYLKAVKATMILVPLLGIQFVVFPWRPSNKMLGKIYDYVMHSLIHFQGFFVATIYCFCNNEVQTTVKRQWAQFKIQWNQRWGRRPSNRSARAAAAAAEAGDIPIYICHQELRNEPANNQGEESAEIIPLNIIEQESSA
T1 sequence (O60896 24-148 partner): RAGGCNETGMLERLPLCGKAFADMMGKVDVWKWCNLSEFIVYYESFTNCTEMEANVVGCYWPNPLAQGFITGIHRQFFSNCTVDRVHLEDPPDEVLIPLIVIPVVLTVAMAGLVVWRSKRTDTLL
Description: Kinetic Intracellular Ca^2+ Changes. Dynamic changes of the free cytosolic Ca2+ concentration were monitored with microplate reader. For monitor amylin induced intracellular Ca^2+, AMY3-HEK293 cells were plated on 96 well cell culture plates and incubated at 37° C. for 12-36 h with DMEM, 10% FBS, and Zeocin medium. For Ca^2+ changes, the AMY3-HEK293 cells were washed twice with assay solution which ion content similar to extracellular brain fluid thus containing the following: 130 mM NaCl, 4 mM KCl, 1 mM MgCl2, 2 mM CaCl2), 10 mM HEPES, and 10 mM glucose (pH 7.35). Then incubated with the membrane-permeant fluorescent Ca^2+-sensitive dye Fluo-8L-AM (AAT Bioquest, Inc., Sunnyvale, CA), with 5 μM of the agent for 40 min at room temperature (20-23° C.) in assay solution. The test compounds were added in various concentrations of 0.01, 0.1, 1, and 10 μM for 10 min and kinetic measured the fluorescent intensity with Varioskan-LUX microplate reader (Thermo Fisher Scientific, Waltham, MA). Human amylin were dissolved in sterile bidistilled water at 1 mM stock solution and incubated at room temperature for 10 min before dilution with assay solution for use at a final concentration of 0.5 μM. Fluorescent intensity was measured at excitation/emission wavelength of 488/514 nm, excitation bandwidth 12 nm, kinetic interval 1 min, and measure time at 100 ms. […]

N2a neuronal cells = test: MTT cell death assay, amyloid beta toxicity; type: cell-based, mouse; conditions: N2a cell line; Aβ1-42 10 μM, soluble oligomeric; 24-48 h; FIG. 4
Description: MTT Cell Death Assay. The N2a (mouse) and SK-N-SH (human) neuronal cells were seeded to 5000 cells/well in a 96-well plate in DMEM medium, 10% FBS and incubated overnight. Cells in culture medium were incubated either with or without the assay compounds and Aβ1-42, 10 μM for 24-48 h. At the end of treatment, 20 μL of 5 mg/mL 3-(4,5-dimethylthiazol-2-yl)-2,5-diphenyltetrazolium bromide (MTT, Sigma) was added to each well and incubated at 37° C. for 3 h. Medium was removed, 100 μL of MTT solvent (isopropanol with 4 mM HCl) was added to each well, and the plates were incubated for 30 min at room temperature on a rotating shaker. Plates were analyzed on a microplate reader at a 562 nm wavelength.

[2] = target: T1, amylin receptor subtype 3 (AMY3); test: cAMP ELISA in AMY3-HEK cells, reduction of human amylin induced cAMP; type: cell-based; conditions: FIG. 2; for Mode of action indicated by cAMP assays in amylin receptor subtype 3 expressing cells: AMY3 expressing cells; for Human amylin generation of cAMP in the presence of compound: human amylin 0.1 μM, compound 10 μM, AMY3-HEK cells
Description: Compounds described herein were screened using a cAMP (cyclic adenosine monophosphate) assay in amylin receptor subtype 3 expressing cells (See FIG. 1).
Cell Cultures. Amylin receptor subtypes (AMY3-HEK cells) stably expressed in human embryonic kidney (HEK293) cell-line were generated and characterized as described in a previous published article (Fu et al., J. Biol. Chem. 2012). The AMY3-HEK cells were grown in a 5% CO2 humidified incubator at 37° C. with DMEM, 10% FBS, and 100 μg/mL Zeocin medium.
ELISA (enzyme-linked immunosorbent assay). Cellular cAMP levels were measured using a parameter cyclic AMP assay kit (R&D Systems) according to the manufacturer's instructions. Briefly, AMY3-HEK cells were plated on 24-well plates overnight. These cells were then incubated with or without the assay compounds and hAmylin for 5 min. The cells were lysed with lysis buffer provided in the assay kit. Standard curves were plotted using the cAMP standards provided in the ELISA kits. All samples were analyzed in duplicate. The plate was measured at 450 nm. Data was plotted, and non-linear regression was fitted with four parameters using Prism software (GraphPad Software, La Jolla, CA).
Compounds were assayed based on potency of reduction at 10 μM of 0.1 μM human Amylin (hAmylin) induced cAMP increases.

[3] = tested on: hippocampal long term potentiation (LTP); test: Hippocampal long term potentiation (LTP) electrophysiology in brain slices; design: species or system mice; conditions: for LTP levels in hippocampal slices from transgenic AD mice (TgCRND8), chronically depressed LTP: compared with age matched wild type control (WT_Cont); for Effect on LTP from wild type control (WT_Cont) mice: WT_Cont slices; for Amyloid beta (Aβ)-induced depression of LTP / Human amylin-induced depression of LTP: compound 1 μM, brain hippocampal slices
From the text: Hippocampal long term potentiation (LTP) electrophysiology experiments: an in vitro cellular surrogate for memory. Brains were quickly removed from mice following decapitation, placed in a cold artificial cerebral spinal fluid (aCSF) on a vibratome chamber and transverse sections cut through the hippocampus. The aCSF contained (in mM) 124 NaCl, 3 KCl, 2.4 CaCl2), 2 MgCl2, 1.25 NaH2PO4, 26 NaHCO3 and 10 D-glucose, and was equilibrated with 95% 02 and 5% CO2. Hippocampal slices ([…]) were maintained in aCSF-filled holding chamber at room temperature for at least 1 hour and individually transferred to the submerged glass bottom recording chamber, which was constantly perfused with aCSF (2 mL/min) at 30° C. Field excitatory postsynaptic potential (fEPSP) was recorded with a metallic (Pt/Ir) electrode (FHC, Bowdoin, ME) from the stratum radiatum layer of Cornu ammonis 1 region of the hippocampus (CA1) area, and the Schaffer collateral afferents were stimulated with 100-μs test pulses via a bipolar cluster electrode (FHC) (Kimura et al., 2012, Kimura et al. 2016). To evaluate basal synaptic transmission, we applied different stimulation strengths (75 μA to 300 μA in steps of 25 μA) and plotted the amplitudes of presynaptic fiber volleys versus the corresponding fEPSP slopes to compare the slope of input/output (I/O) curves of fEPSP. For long-term potentiation (LTP) experiments, the stimulus strength was set to elicit 40-50% of the maximum fEPSP amplitude and test pulses were delivered to Schaffer collaterals once every 30 seconds. LTP was induced by 3-theta-burst stimulation (3-TBS) protocol (each burst consisted of 4 pulses at 100 Hz with a 200-ms inter-burst interval). Before 3-TBS or drug application, the responses were monitored for at least 10 minutes to ensure a stable baseline of fEPSP. […] Results were from various treatment groups were plotted as histograms with means±standard error (SE). Statistical analysis was performed using one-way ANOVA followed by post-hoc Tukey's honestly significant difference (HSD) test (for multiple comparisons) or Student's t test (for pair-wise comparisons). All drugs and chemicals were applied directly to the slice via bath perfusion, which allowed for a complete exchange of the perfusate in less than a minute and a half.

Aβ toxicity = conditions: Jhamandas et al., 2004; 2011; 2012; cited from earlier work
long-term potentiation = conditions: hippocampus of TgCRND8 mice; Kimura et al., 2012; 2016; cited from earlier work

| Elevations in intracellular calcium evoked by human amylin [1] | Mode of action indicated by cAMP assays in amylin receptor subtype 3 expressing cells [2] | Human amylin generation of cAMP in the presence of compound [2] | Molecule | Cytoprotection against amyloid beta (Abeta) toxicity, cell viability by MTT (N2a neuronal cells) | LTP levels in hippocampal slices from transgenic AD mice (TgCRND8), chronically depressed LTP [3] | Effect on LTP from wild type control (WT_Cont) mice [3] | Amyloid beta (Aβ)-induced depression of LTP [3] | Human amylin-induced depression of LTP [3] | Neuroprotection against Aβ toxicity (Aβ toxicity) | Aβ- or human amylin-induced depression of long-term potentiation (long-term potentiation) |
| --- | --- | --- | --- | --- | --- | --- | --- | --- | --- | --- |
| attenuated | amylin receptor antagonists | attenuated | O=c1[nH]c2ccccc2n(CCCO)c1=O [Compound 1, 1-(3-hydroxypropyl)-1,4-dihydroquinoxaline-2,3-dione] | cytoprotective | increased LTP levels | no effects | blocked | blocked |  |  |
| attenuated | amylin receptor antagonists | attenuated | O=C1CN(C(=O)CCO)c2ccccc2N1 [Compound 10, 4-(3-hydroxypropanoyl)-3,4-dihydroquinoxalin-2(1H)-one] | cytoprotective | increased LTP levels to levels observed in WT_Cont mice | no effects | blocked | blocked |  |  |
|  |  |  | AC253: peptide antagonist of the amylin receptor, 24 amino acids, SEQ ID NO: 1 (Ac-LGRLSQELHRLQTYPRTNTGSNTY) |  |  |  |  |  | neuroprotective | reverse impairment |
